Measured values from US20190135787A1, “PYRIMIDINE COMPOSITIONS, ULTRA-PURE COMPOSITIONS AND SALTS THEREOF, METHODS OF MAKING THE SAME, AND METHODS OF USING THE SAME FOR TREATING HISTAMINE H4 RECEPTOR (H4) MEDIATED DISEASES AND CONDITIONS” (Novartis AG, priority 2015, published 2019).

Legend:
[1] = Salt screen: physical stability under accelerated aging conditions (HT-XRPD); assay type: physicochemical; conditions: 40° C., 75% RH, two days, code+number = crystalline salt form, 0 = crystalline counter ion itself
Description: XRPD patterns were obtained using the Crystallics T2 high-throughput XRPD set-up. The plates were mounted on a Bruker General Area Detector Diffraction System (GADDS) equipped with a VANTEC-500 gas area detector corrected for intensity and geometric variations. The calibration of the measurement accuracy (peaks position) was performed using NIST SRM1976 standard (Corundum).
Data collection was carried out at room temperature using monochromatic CuKα radiation in the 2θ region between 1.5° and 41.5°, which is the most distinctive part of the XRPD pattern. The diffraction pattern of each well was collected in two 20 ranges (1.5°≤2θ≤21.5° for the first frame, and 19.5°≤2θ≤41.5° for the second) with an exposure time of 90s for each frame. No background subtraction or curve smoothing was applied to the XRPD patterns.
Approximately 175 mg of N^4-(cyclopropylmethyl)-6-[(3R)-3-(methylamino)pyrrolidin-1-yl]pyrimidine-2,4-diamine in 1-Butanol and Dichloromethane were combined with a slight molar excess of either solid or liquid counter ion. Samples were incubated at RT. After 5 days the solids were collected, dried under vacuum and analyzed by HT-XRPD (XRPD 1).
Subsequently, the solids were exposed to accelerated aging conditions (40° C., 75% RH) for two days and re-analyzed by HT-XRPD (XRPD 2). Crystalline salts (polymorphs) are indicated with the abbreviated counter ion code and a number (1, 2, etc.). The number zero (0) indicates the crystalline counter ion itself.

[2] = Dynamic vapor sorption (DVS); assay type: physicochemical; conditions: 25° C.
Description: Moisture sorption isotherms were collected on a DVS-1 system from Surface Measurement Systems (London, UK). Typical sample size is between 5 and 10 mg of solid material. The relative humidity was cycled between 40% to 0% (desorption), up to 95% (sorption), back to 0% RH (desorption) and up to 95% RH (sorption) in steps of 10% at a constant temperature of 25° C. with an initial stabilizing step at 40% RH for 6 hours.

[3] = test system: adult subjects with moderate to severe atopic dermatitis; assay: Phase 2a study in moderate to severe atopic dermatitis; assay type: in vivo, human; conditions: 8 weeks
Description: Following the phase 1 trials, a phase 2a trial was conducted to evaluate the efficacy of 8 weeks of treatment with 30 mg ZPL-389 administered once daily in adult subject with moderate to severe atopic dermatitis. The study was also designed to assess the safety and tolerability of ZPL-389 in adult subjects with moderate to severe atopic dermatitis.
This study was a randomized, double blind, placebo controlled, parallel group study of subjects having a pruritus Numerical Rating Scale (NRS) of ≥5 (0-10 scale), an Investigator's Global Assessment (IGA)≥3 (0-3 scale), and moderate-severe AD Eczema Area and Severity Index (EAST)≥12 and ≤48 (0-72 scale). In addition, subjective patient reported outcome instruments include: Ziarco Itch Diary (Electronic) Pruritus; 5D Pruritus Scale; Dermatology Life Quality Index (DLQI); and Patient Global Impression of Change (PGIG).
Each subject (aged 18-65 years) had one or more screening visits to confirm suitability to enter the study. 98 subjects with moderate to severe atopic dermatitis were randomized 2:1 to receive orally either 30 mg ZPL-389 or placebo once daily for eight weeks (56 days).
Efficacy endpoints for the trial include the following: • change from baseline in NRS for pruritus (worst itch) over 24 hours; • change from baseline in daytime NRS for pruritus (worst itch); • change from baseline in night time NRS for pruritus (worst itch); • change from baseline in NRS for sleep disturbance; • change from baseline in duration of itching; • change from baseline in verbal rating score for pruritus; • change from baseline in EASI score; • change from baseline in SCORAD score; • IGA score; • amount of rescue medication use; and/or • PGIC.

[4] = Phase 1 trials, single and multiple ascending doses; assay type: in vivo, human
Description: In phase 1 trials, 62 subjects were treated with ZPL-389.

[5] = test system: mild asthmatics; conditions: 36 mg, two single oral doses 12 hours apart; cited from earlier work

Molecule | XRPD2: solid form after accelerated aging ([1]; solid from 1-butanol) | XRPD2: solid form after accelerated aging ([1]; solid from dichloromethane) | other results
O=C(O)C(O)c1ccccc1 (racemic) [DL-Mandelic acid] | Amorphous | Amorphous | 
CC(=O)Nc1ccc(C(=O)O)cc1 [4-acetamido-Benzoic acid] | ABen1 + ABen0 | ABen1 + ABen0 | 
O=C(O)[C@H](O)[C@@H](O)C(=O)O [(+)-L-Tartaric acid] | Amorphous | Amorphous | 
CC(=O)O [Acetic acid] | Amorphous | Amorphous | 
O=C[C@H](O)[C@@H](O)[C@H](O)[C@H](O)C(=O)O [D-Glucuronic acid] | Amorphous | Amorphous | 
O=S(=O)(O)CCS(=O)(=O)O [Ethane-1,2-disulfonic acid] | Eds1 + Eds2 | Eds1 | 
CN[C@@H]1CCN(c2cc(NCC3CC3)nc(N)n2)C1.O.O.O=C(O)C(O)C(O)C(=O)O [Example 4, N^4-(cyclopropylmethyl)-6-[(3R)-3-(methylamino)pyrrolidin-1-yl]pyrimidine-2,4-diamine tartrate dihydrate] |  |  | total mass uptake ([2]; 20-30% RH): 6.9%; RH at which the dehydration step occurs during desorption [2]: below 10 % RH; water uptake (mass uptake) ([2]; between 0-20% RH): 1.9%; weight ([2]; between 30-90% RH): remains stable
O=C(O)c1cc(O)ccc1O [Gentisic acid] | Gen2 | Gen2 | 
O=C(O)[C@H](O)[C@@H](O)[C@H](O)[C@H](O)CO [Gluconic acid] | Amorphous | Amorphous | 
N[C@@H](CCC(=O)O)C(=O)O [Glutamic acid] | Gltm0 | Amorphous | 
O=C(O)CCCC(=O)O [Glutaric acid] | Glut1 | Glut1 | 
O=C(O)CNC(=O)c1ccccc1 [Hippuric acid] | Amorphous | Amorphous | 
Br [Hydrobromic acid] | Amorphous | Amorphous | 
Cl [Hydrochloric acid] | Amorphous | Amorphous | 
N[C@@H](CC(=O)O)C(=O)O [L-Aspartic acid] | Asp0 | Amorphous | 
CS(=O)(=O)O [Methanesulfonic acid] | Amorphous | Amorphous | 

Molecule | XRPD2: solid form after accelerated aging ([1]; solid from 1-butanol) | XRPD2: solid form after accelerated aging ([1]; solid from dichloromethane) | other results
O=S(=O)(O)c1ccc2ccccc2c1 [Naphtalene-2-sulfonic acid] | Nap1 + Nap0 | Amorphous | 
O=P(O)(O)O [Phosphoric acid] | Pho2 plus | Pho3 | 
O=C(O)c1ccccc1O [Salicylic acid] | Sal1 plus | Amorphous | 
CCCCCCCCCCCCCCCCCC(=O)O [Stearic acid] | Ste0 + Ste1 | Ste0 + Ste1 | 
O=S(=O)(O)O [Sulfuric acid] | Amorphous | Amorphous | 
CN[C@@H]1CCN(c2cc(NCC3CC3)nc(N)n2)C1 [ZPL-389, N^4-(cyclopropylmethyl)-6-[(3R)-3-(methylamino)pyrrolidin-1-yl]pyrimidine-2,4-diamine] |  |  | Treatment Emergent Adverse Events (TEAE) vs placebo ([3]; 30 mg once daily): no differences; rescue medication use vs placebo ([3]; 30 mg once daily): lower; tolerability / safety profile ([3]; 30 mg once daily, comparable to placebo): well tolerated; pruritus ([3]; 30 mg once daily, statistically significant compared to baseline): markedly reduced; IGA reduction ([3]; 30 mg orally once daily, placebo 25%): 36%; pharmacokinetics, dose dependence ([4]; phase 1 trials): dose-proportional pharmacokinetics; majority of observed adverse events ([4]; single doses 0.01-48 mg, 5, 15 and 50 mg once daily for 14 days): mild, transient, and non-dose related; tolerability ([4]; single doses 0.01-48 mg, 5, 15 and 50 mg once daily for 14 days, 62 subjects): safely tolerated; efficacy in mild asthma [5]: no efficacy was observed
(−)-L-Malic acid | Amorphous | Amorphous | 
Benzenesulfonic acid | Amorphous | Amorphous | 
Benzoic acid | Ben1 + Ben2 plus | Ben1 + Ben2 plus | 
Citric acid | Amorphous | Amorphous | 
Ethanesulfonic acid | Amorphous | Amorphous | 
Fumaric acid | Amorphous | Fum0 + Fum3 | 
Lactic acid | Amorphous | Amorphous | 
Maleic acid | Amorphous | Amorphous | 
Oxalic acid | Oxa3 | Oxa3 | 
